Here are results for 3 compounds from US20080293647A1, “Combined Use Of Vitamin D Derivatives And Anti-Proliferative Agents For Treating Bladder Cancer” (priority 2004, published 2008).

Several values for one entry are separate records, joined by “and”; a condition that tells them apart may be missing. Equal entries are not always repeated. Where two headings read alike, the source gives them in different places.

One data set relates to 24-hydroxylase (CYP24). Briefly: Expression of 24-hydroxylase (CYP24) in human bladder cancer cell lines, Real Time RT-PCR. It is filed as cell-based. To be noted: 100 nM, 2 h.
The nature of data set [1]: Stability/compatibility of epirubicin and calcitriol solution for intravesical instillation (HPLC-UV). It is filed as physicochemical. The method, then:
Approximately 12 mg of freeze-dried Farimorubicina® powder (approx. 2 mg of epirubicin) were dissolved in water to produce a concentrated stock solution. After vortexing, the concentrated stock was diluted 1:2 using a isotonic saline containing Tween 20 at 0.1% (w/v) to provide Sample B. After further vortexing, Sample B was stored at 4° C. until use. […] The solution was mixed and stored at −20° C. until use. 100 μl of the concentrated stock solution was then taken and diluted with 900 μl of isotonic saline containing Tween 20 0.1% (w/v). After shaking the sample was stored at 4° C. until use. […] Following mixing by vortexing, the sample was stored at 5° C. and analysed using HPLC chromatography after preparation (t=0) and after 2.5 hr (t=150 min). [table]

A further data set relates to RT4. The experiment in a line: Inhibition of cell proliferation, RT4 human bladder cancer cells (CyQuant). The data set is classed as cell-based. To be noted: 96-h culture, read-out: Bladder Cancer Cell Lines IC50 (μM) RT4. As to the method: (§1) After an additional 96-h culture, the medium was removed and the plates frozen at −80° C. Cell proliferation was evaluated using CyQuant cell proliferation assay kit from Molecular Probes (Eugene, Oreg.).

In another data set the test system is RT112. The experiment in a line: Inhibition of cell proliferation, RT112 human bladder cancer cells (CyQuant). It is filed as cell-based. To be noted: 96-h culture, read-out: Bladder Cancer Cell Lines IC50 (μM) RT112. As to the method: as §1
For data set [2], the system named is human bladder cancer cell lines. Briefly: Combination of calcitriol with chemotherapeutic agents, bladder cancer cell line proliferation, combination index method. The data set is classed as cell-based. The note with it: agent combined with calcitriol; combination index method (CalcuSyn). The method, then: Proliferation was measured after an additional 96 h using CyQuant cell proliferation assay kit. Drug interactions (as shown in FIG. 1) were evaluated by the median-effect/isobologram method using CalcuSyn software (Biosoft, Cambridge, UK). Combination Indices (CI) were calculated using the non-constant ratio combination design, determining synergism or antagonism for each data point.

Where [3] appears, read: combination (calcitriol 50 μg/ml + epirubicin 1 mg/ml), t = 0 min.
The mark [4] stands for this setting: combination (calcitriol 50 μg/ml + epirubicin 1 mg/ml), t = 150 min, stored at 5° C.
The mark [5] stands for this setting: single-component solution (epirubicin 1 mg/ml; calcitriol 100 μg/ml), HPLC peak area.

As for `C=C1/C(=C\C=C2/CCC[C@]3(C)C([C@H](C)CCCC(C)(C)O)CC[C@@H]23)C[C@@H](O)C[C@@H]1O` (stereo partly shown) [1,25-Dihydroxycholecalciferol], the “Expression of 24-hydroxylase (CYP24)” value in the data set on 24-hydroxylase (CYP24) is “up-regulation of CYP24”. The “Area (230 nm)” value was 2068192 and 1960823 in data set [1] (setting [3]); 2027619 and 1954501 in data set [1] (setting [4]); 3402919 and 3485146 in data set [1] (setting [5]). Moreover, the “Area (254 nm)” value was 2710511 and 2589663 in data set [1] (setting [3]); 2674857 and 2572268 in data set [1] (setting [4]); 4981173 and 5116113 in data set [1] (setting [5]). In addition, the concentration for half-maximal inhibition (IC50) (as a rule, the concentration at which inhibition is half-maximal) in the data set on RT4 amounted to 26 µM; in the data set with RT4 (Homo sapiens, RT-4, 96 h), 45 µM; in the data set with RT112 it was 28.7 µM; in the data set on RT112 (Homo sapiens, RT-112, 96 h) it was 19 µM.

On to `Nc1ccn([C@@H]2O[C@H](CO)[C@@H](O)C2(F)F)c(=O)n1` [gemcitabine], for which, in data set [2], the “Synergism or antagonism on bladder cancer cell proliferation in combination with calcitriol” value was “strong antagonistic effect”.

Take `COc1cccc2c1C(=O)c1c(O)c3c(c(O)c1C2=O)C[C@@](O)(C(=O)CO)C[C@@H]3O[C@H]1C[C@H](N)[C@@H](O)[C@H](C)O1` [epirubicin]: the “Area (230 nm)” value in data set [1] (setting [3]) is 53425733 and 53877070; in data set [1] (setting [4]), 52245312 and 50817806; in data set [1] (setting [5]), 30443828 and 30511286 and 30555666. For the same compound, the “Area (254 nm)” value is 44443024 and 44731107 in data set [1] (setting [3]); 43984488 and 43221785 in data set [1] (setting [4]); 23243121 and 23243599 and 23383366 in data set [1] (setting [5]). For the same compound, in data set [2], the “Synergism or antagonism on bladder cancer cell proliferation in combination with calcitriol” value was “strong synergistic effect”.
